Results taken from patent US20070282004A1, “Use of a Cyclopentenone Prostaglandin for Delaying for the Onset and/or Preventing the Continuation of Labour” (Imperial College Innovations Limited, priority 2003, published 2007).
Entries after “also recorded” stand apart in the source; their conditions may differ.

Assays:
NF-κB [1] = assay: NF-κB-dependent luciferase reporter (κB.BG.Luc) in amnion cells; format: cell-based, human; details: L− or L+ amnion cells, treated 2 h, IL-1β 1 ng/ml 6 h
Description: . Values are normalised for b-gal reporter activity.
Placentae were obtained from patients at term either at elective Caesarean section prior to labour (L−) or following spontaneous labour onset and vaginal delivery (L+). Amnion cells were prepared as described in Bennett et al., (1989). Briefly, the amnion was separated from the placenta, washed 3× in PBS, cut into strips, and incubated in 0.5 mM EDTA in PBS for 15 min. The strips were washed in PBS 2× and digested with 2.5 mg/ml dispase in serum-free DMEM for 35 min at 37° C. The amnion was then shaken vigorously in DMEM, 10% FCS to dissociate the cells, the remaining strips discarded, and the cell suspension pelleted at 175 g for 10 min and cultured in DMEM, 10% FCS (Sigma), 1% L-glutamine, 1% penicillin-streptomycin.
pGL3.6κB.BG.luc was the reporter construct used to assess NF-κB-mediated transcription, while the mutant pGL3.6κBmut.luc and empty pGL3.BG.luc were used as controls (Schwarzer et al., 1998).
pGL3.6κB.BG.luc: a NF-κB-dependent reporter construct with 6 copies of the NF-κB binding site. It contains two tandem repeats of the sequence 5′-GGG GAC TTT C CC TGGGGACTTTCCCTGGGGACTTTCCC-3′, which contains three copies of the decameric NF-κB binding site (underlined) upstream of a minimal β-globin promoter driving a luciferase gene.
(§1) Cells were co-transfected with the renilla vector pRL-CMV or β-galactosidase vector pCH110 as internal controls for transfection efficiencies.

NF-κB [2] = assay: NF-κB-dependent luciferase reporter (κB.BG.Luc) in myometrial cells; format: cell-based, human; details: for IL-1β-induced NF-κB transcriptional activity (κB.BG.Luc reporter): treated 2 h, IL-1β 1 ng/ml 6 h
Description: Myometrial cells were transiently transfected with the NFκB-dependent reporter construct κB.BG.Luc, treated with 15dPGJ2 or vehicle for 2 h, ±IL-1β (1 ng/ml) for 6 h. […] Values are normalised for b-gal reporter activity. (NS=nonstimulated).
Myometrial cells were transfected with […] κB.BG.Luc reporter and 200 ng PPAR-γ expression vector and treated with 15d-PGJ2 for 2 h followed by IL-1β (1 ng/ml) for 6 h. Values are normalised for β-galactosidase reporter activity. (NS=nonstimulated).
Myometrial tissue was collected at term from the upper margin of uterine incision at the time of lower segment caesarean section either prior to the onset of labour (L−) or […] (L+). L+ samples were collected by Dr Mark Johnson and Dr S Soorrana at Chelsea & Westminster Hospital. Myometrial tissue was dissected, rinsed in PBS, and digested in serum-free DMEM containing 15 mg/ml collagenase 1A (Sigma), 15 mg/ml collagenase X, and 50 mg/ml bovine serum albumin for 45 min at 37° C. The cell suspension was filtered through a cell strainer, centrifuged at 400 g for 5 min, and the pellet re-suspended and plated out in DMEM, 10% FCS (Helena BioScience), 1% L-glutainine, 1% penicillin-streptomycin. Cells were used between passage numbers 1-4.
pGL3.6κB.BG.luc: a NF-κB-dependent reporter construct with 6 copies of the NF-κB binding site.
as §1

PPAR-γ = biological target: T1, PPAR-γ (Homo sapiens, UniProt P37231); details: as stated from the literature; cited from earlier work
T1 sequence (P37231 1-505): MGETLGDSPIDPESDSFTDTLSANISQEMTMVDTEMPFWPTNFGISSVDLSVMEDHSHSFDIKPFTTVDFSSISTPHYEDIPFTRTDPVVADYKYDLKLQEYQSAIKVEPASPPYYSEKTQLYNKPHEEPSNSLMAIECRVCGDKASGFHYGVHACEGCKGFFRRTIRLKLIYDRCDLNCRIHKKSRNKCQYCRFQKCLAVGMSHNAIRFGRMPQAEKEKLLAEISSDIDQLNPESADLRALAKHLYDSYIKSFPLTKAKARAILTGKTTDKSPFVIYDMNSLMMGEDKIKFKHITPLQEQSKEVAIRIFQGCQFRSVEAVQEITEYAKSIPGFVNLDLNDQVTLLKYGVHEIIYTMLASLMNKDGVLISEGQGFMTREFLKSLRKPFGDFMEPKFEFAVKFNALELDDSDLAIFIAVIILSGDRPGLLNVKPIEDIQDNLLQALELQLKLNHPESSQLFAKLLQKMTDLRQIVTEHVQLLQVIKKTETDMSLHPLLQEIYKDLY

Row | SMILES | IL-1β-induced NF-κB transcriptional activity (κB.BG.Luc reporter) (NF-κB [1]) | Effect of PPARγ overexpression on 15d-PGJ2 inhibition of NF-κB transcriptional activity (NF-κB [2]; 200 ng PPAR-γ expression vector) | IL-1β-induced NF-κB transcriptional activity (κB.BG.Luc reporter) (NF-κB [2]) | IL-1β-induced NF-κB transcriptional activity (κB.BG.Luc reporter) (NF-κB [2]; listed as 15dPGJ2) | PPAR agonist / ligand activity (PPAR-γ)
1 | CCCCCC=CC=C1C(=O)C=C[C@@H]1CC=CCCCC(=O)O [15d-PGJ2, 15-deoxy-Δ^12,14prostaglandin J2] | inhibited | does not potentiate | reducing reporter activity to basal levels; also recorded: inhibited | inhibition | is a PPAR agonist
2 | CCCCC[C@H](O)/C=C/[C@H]1C=CC(=O)[C@@H]1CCCCCCC(=O)O [PGA1, prostaglandin A1] | inhibited | – | reduced to basal levels | – | does not act as a PPAR ligand
